From US20080207622A1, “SOLUBLE EPOXIDE HYDROLASE INHIBITORS” (Arete Therapeutics, Inc., priority 2006, published 2008)

What was measured:
[1] = system: soluble epoxide hydrolase (sEH); test: Fluorescent assay for mouse and human soluble epoxide hydrolase (CMNPC substrate); format: biochemical
Text: Fluorescent Assay for Mouse and Human Soluble Epoxide Hydrolase
Recombinant mouse sEH (MsEH) and human sEH (HsEH) were produced in a baculovirus expression system as previously reported. Grant et al., J. Biol. Chem., 268:17628-17633 (1993); Beetham et al., Arch. Biochem. Biophys., 305:197-201 (1993). The expressed proteins were purified from cell lysate by affinity chromatography. Wixtrom et al., Anal. Biochem., 169:71-80 (1988). Protein concentration was quantified using the Pierce BCA assay using bovine serum albumin as the calibrating standard. The preparations were at least 97% pure as judged by SDS-PAGE and scanning densitometry. They contained no detectable esterase or glutathione transferase activity which can interfere with the assay. The assay was also evaluated with similar results in crude cell lysates or homogenate of tissues.
The IC50s for each inhibitor were determined according to the following procedure:
Cyano(2-methoxynaphthalen-6-yl)methyl (3-phenyloxiran-2-yl)methyl carbonate (CMNPC; Jones P. D. et. al.; Analytical Biochemistry 2005; 343: pp. 66-75)
Bis/Tris HCl 25 mM pH 7.0 containing 0.1 mg/mL of BSA (buffer A) CMNPC at 0.25 mM in DMSO.
Mother solution of enzyme in buffer A (Mouse sEH at 6 μg/mL and Human sEH at 5 μg/mL).
Inhibitor dissolved in DMSO at the appropriate concentration.
In a black 96 well plate, fill all the wells with 150 μL of buffer A.
Add 2 μL of DMSO in well A2 and A3, and then add 2 μL of inhibitor solution in A1 and A4 through A12.
Add 150 μL of buffer A in row A, then mix several time and transfer 150 μL to row B. Repeat this operation up to row H. The 150 μL removed from row H is discarded.
Add 20 μL of buffer A in column 1 and 2, then add 20 μL of enzyme solution to column 3 to 12.
Incubate the plate for 5 minutes in the plate reader at 30° C.
During incubation prepare the working solution of substrate by mixing 3.68 mL of buffer A (4×0.920 mL) with 266 μL (2×133 μL) of substrate solution).
At t=0, add 30 μL of working substrate solution with multi-channel pipette labeled “Briggs 303” and start the reading ([S]final: 5 μM).
Read with ex: 330 nm (20 nm) and em: 465 nm (20 nm) every 30 second for 10 minutes. The velocities are used to analyze and calculate the IC50s.

% Inhibition ([1]; Conc. 50 nM) [%]	SMILES	also measured
88	CS(=O)(=O)c1cccc(NC(=O)Nc2ccc(C(F)(F)F)cc2)c1 [Compound 3, 1-(3-Methanesulfonyl-phenyl)-3-(4-trifluoromethyl-phenyl)-urea]	
92	O=C(Nc1ccc(C(F)(F)F)cc1)Nc1ccc(S(=O)(=O)c2ccccc2)cc1 [Compound 1, 1-(4-Benzenesulfonyl-phenyl)-3-(4-trifluoromethyl-phenyl)-urea]	
79	CS(=O)(=O)c1ccc(NC(=O)Nc2ccc(C(F)(F)F)cc2)cc1 [Compound 2, 1-(4-Methanesulfonyl-phenyl)-3-(4-trifluoromethyl-phenyl)-urea]	
	O=C(Nc1ccccc1)Nc1cccc(S(=O)(=O)CCCN2CCOCC2)c1 [Compound 4, 1-[3-(3-Morpholin-4-yl-propane-1-sulfonyl)-phenyl]-3-phenyl-urea]	% Inhibition ([1]; Conc. 500 nM): 74%
	COc1ccc(S(=O)(=O)c2ccc(NC(=O)NC34CC5CC(CC(C5)C3)C4)cc2)nn1 [Compound 10, 1-Adamantan-1-yl-3-[4-(6-methoxy-pyridazine-3-sulfonyl)-phenyl]-urea]	% Inhibition ([1]; Conc. 2000 nM): 100%; melting point: 252 to 254 °C
